# Experimental data taken from the kinase profiling compilation of Christmann-Franck et al. (2016).
# Columns and labels:
# Assay in all cases: KINOMEscan competition binding
# Conditions in all cases: compound 10.0 µM
# [1] = molecular target: NUAK2 (human) (UniProt Q9H093)
# [2] = molecular target: MAP2K1 (human) (UniProt Q02750)
# [3] = molecular target: ABL2 (human) (UniProt P42684)
# [4] = molecular target: YES1 (human) (UniProt P07947)
# [5] = molecular target: NUAK1 (human) (UniProt O60285)
# [6] = molecular target: MAP2K4 (human) (UniProt P45985)
# [7] = molecular target: MAP3K3 (human) (UniProt Q99759)
# [8] = molecular target: MELK (human) (UniProt Q14680)
# [9] = molecular target: LRRK2 (human) (UniProt Q5S007)
# [10] = molecular target: RPS6KA4 KD1 (human) (UniProt O75676)
# [11] = molecular target: CDK17 (human) (UniProt Q00537)
# [12] = molecular target: ERBB2 (human) (UniProt P04626)
# [13] = molecular target: ALK (human) (UniProt Q9UM73)
# [14] = molecular target: NEK6 (human) (UniProt Q9HC98)
# [15] = molecular target: NTRK2 (human) (UniProt Q16620)
# [16] = molecular target: MAP3K6 (human) (UniProt O95382)
# MAP3K6 (human), sequence (O95382 whole entry, looked up): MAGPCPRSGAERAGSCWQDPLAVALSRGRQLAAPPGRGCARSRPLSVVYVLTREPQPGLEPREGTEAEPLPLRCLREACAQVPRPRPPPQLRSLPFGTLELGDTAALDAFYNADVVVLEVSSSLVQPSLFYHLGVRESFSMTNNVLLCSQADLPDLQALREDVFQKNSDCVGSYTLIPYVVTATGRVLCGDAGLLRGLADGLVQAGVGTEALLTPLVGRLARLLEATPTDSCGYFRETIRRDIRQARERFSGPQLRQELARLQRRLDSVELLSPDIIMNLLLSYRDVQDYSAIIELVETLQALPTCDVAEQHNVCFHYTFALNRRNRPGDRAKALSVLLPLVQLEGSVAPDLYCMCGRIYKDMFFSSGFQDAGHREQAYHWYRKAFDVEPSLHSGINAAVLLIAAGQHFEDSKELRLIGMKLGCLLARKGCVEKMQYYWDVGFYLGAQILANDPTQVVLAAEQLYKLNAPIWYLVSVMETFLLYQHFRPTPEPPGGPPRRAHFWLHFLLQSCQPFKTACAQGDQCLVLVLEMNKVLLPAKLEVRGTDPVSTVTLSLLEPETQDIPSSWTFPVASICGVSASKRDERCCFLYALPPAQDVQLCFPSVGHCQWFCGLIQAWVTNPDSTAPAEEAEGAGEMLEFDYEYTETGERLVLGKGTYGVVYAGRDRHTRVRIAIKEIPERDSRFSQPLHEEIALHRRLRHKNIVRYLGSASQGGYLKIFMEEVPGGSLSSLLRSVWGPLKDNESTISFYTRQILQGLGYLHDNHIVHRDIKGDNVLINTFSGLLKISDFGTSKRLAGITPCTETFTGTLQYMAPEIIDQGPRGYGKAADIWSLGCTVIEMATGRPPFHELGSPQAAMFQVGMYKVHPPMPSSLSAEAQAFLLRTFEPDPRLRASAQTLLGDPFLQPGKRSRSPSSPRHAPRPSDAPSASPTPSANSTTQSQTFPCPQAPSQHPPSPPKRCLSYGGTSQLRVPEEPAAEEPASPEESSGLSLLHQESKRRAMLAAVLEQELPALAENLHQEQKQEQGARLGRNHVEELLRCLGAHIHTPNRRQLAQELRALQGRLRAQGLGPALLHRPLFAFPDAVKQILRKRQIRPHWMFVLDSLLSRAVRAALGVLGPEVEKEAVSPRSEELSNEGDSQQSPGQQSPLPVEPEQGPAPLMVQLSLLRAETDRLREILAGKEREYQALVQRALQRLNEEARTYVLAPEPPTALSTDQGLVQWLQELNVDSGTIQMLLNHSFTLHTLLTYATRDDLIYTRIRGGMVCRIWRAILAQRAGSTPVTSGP
# [17] = molecular target: PRKCI (human) (UniProt P41743)
# PRKCI (human), sequence (P41743 whole entry, looked up): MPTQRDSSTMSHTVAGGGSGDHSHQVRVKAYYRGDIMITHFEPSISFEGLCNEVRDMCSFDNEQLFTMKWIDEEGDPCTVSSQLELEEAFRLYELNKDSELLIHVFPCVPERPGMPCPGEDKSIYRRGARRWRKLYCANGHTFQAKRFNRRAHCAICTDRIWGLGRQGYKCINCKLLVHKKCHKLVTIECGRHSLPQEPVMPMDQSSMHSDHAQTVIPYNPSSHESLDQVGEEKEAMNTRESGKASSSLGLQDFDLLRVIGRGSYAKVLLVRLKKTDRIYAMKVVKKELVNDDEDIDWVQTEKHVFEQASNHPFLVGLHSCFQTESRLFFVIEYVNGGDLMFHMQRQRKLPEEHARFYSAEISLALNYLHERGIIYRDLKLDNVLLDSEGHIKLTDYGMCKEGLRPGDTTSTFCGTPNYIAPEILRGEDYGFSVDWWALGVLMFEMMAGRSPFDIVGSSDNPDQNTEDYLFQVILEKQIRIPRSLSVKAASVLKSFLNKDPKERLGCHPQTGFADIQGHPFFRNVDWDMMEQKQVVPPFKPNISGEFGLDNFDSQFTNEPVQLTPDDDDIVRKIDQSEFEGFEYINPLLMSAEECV
# [18] = molecular target: NTRK1 (human) (UniProt P04629)
# [19] = molecular target: STK10 (human) (UniProt O94804)
# [20] = molecular target: ACVR2A (human) (UniProt P27037)
# [21] = molecular target: ERN1 (human) (UniProt O75460)
# [22] = molecular target: EPHA2 (human) (UniProt P29317)
# [23] = molecular target: TGFBR2 (human) (UniProt P37173)
# TGFBR2 (human), sequence (P37173 whole entry, looked up): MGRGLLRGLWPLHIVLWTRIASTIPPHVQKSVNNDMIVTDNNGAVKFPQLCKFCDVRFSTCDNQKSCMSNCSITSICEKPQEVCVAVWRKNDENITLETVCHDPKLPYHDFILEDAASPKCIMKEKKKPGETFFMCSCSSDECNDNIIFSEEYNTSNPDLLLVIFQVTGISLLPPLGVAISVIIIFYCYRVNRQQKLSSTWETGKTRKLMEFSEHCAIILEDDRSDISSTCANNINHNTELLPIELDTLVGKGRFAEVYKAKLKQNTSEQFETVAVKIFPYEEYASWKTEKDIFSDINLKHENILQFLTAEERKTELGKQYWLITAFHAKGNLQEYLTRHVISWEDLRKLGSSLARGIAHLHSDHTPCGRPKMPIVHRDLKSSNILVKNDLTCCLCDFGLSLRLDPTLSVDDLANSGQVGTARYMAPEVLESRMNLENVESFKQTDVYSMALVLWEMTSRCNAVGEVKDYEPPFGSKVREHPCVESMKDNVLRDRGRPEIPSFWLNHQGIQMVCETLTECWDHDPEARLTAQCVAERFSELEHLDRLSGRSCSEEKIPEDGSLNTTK
# [24] = molecular target: TYK2 JH1 catalytic (human) (UniProt P29597)
# [25] = molecular target: MST4 (human) (UniProt Q9P289)
# [26] = molecular target: PKMYT1 (human) (UniProt Q99640)
# PKMYT1 (human), sequence (Q99640 whole entry, looked up): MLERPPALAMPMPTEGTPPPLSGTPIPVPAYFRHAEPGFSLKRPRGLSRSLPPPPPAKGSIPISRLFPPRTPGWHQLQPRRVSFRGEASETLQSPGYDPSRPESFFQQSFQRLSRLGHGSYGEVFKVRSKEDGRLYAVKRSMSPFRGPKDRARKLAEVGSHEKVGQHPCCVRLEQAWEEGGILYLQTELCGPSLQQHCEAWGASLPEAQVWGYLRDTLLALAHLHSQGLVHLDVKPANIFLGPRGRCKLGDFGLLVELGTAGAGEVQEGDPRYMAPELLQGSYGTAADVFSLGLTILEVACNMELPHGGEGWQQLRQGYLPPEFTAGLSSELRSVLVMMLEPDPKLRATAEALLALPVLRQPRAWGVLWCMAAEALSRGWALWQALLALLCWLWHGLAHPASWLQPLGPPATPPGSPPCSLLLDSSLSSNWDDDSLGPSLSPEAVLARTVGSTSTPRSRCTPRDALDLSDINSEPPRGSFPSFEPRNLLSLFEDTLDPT
# [27] = molecular target: CDK18 (human) (UniProt Q07002)
# [28] = molecular target: WEE1 (human) (UniProt P30291)
# WEE1 (human), sequence (P30291 whole entry, looked up): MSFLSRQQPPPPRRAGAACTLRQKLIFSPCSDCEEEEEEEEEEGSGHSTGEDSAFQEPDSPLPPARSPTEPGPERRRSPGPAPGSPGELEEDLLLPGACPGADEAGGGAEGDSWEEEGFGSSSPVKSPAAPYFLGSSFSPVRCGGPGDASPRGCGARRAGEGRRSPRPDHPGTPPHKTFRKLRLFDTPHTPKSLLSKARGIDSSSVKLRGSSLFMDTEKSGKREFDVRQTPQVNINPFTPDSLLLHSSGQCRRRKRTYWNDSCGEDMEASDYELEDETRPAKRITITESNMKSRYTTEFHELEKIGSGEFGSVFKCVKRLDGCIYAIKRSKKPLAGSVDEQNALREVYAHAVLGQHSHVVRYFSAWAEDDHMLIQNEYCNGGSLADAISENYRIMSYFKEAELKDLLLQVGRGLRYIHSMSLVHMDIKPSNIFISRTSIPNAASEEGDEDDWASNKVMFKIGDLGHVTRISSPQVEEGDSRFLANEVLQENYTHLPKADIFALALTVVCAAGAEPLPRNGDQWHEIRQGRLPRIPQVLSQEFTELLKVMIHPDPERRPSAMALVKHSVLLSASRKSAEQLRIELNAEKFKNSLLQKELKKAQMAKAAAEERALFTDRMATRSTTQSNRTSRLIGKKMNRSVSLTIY
# [29] = molecular target: RPS6KA1 KD1 (human) (UniProt Q15418)
# [30] = molecular target: FES (human) (UniProt P07332)
# [31] = molecular target: PKN3 (M.tuberculosis) (UniProt Q6P5Z2)
# [32] = molecular target: PTK6 (human) (UniProt Q13882)
# [33] = molecular target: EPHA6 (human) (UniProt Q9UF33)
# [34] = test system: EGFR (human), P00533 [L858R]
# [35] = molecular target: MAP3K11 (human) (UniProt Q16584)
# [36] = molecular target: CAMKK1 (human) (UniProt Q8N5S9)
# [37] = molecular target: CSF1R (human) (UniProt P07333)
# [38] = molecular target: TNIK (human) (UniProt Q9UKE5)
# [39] = molecular target: CLK3 (human) (UniProt P49761)
# [40] = molecular target: MYLK3 (human) (UniProt Q32MK0)
# MYLK3 (human), sequence (Q32MK0 whole entry, looked up): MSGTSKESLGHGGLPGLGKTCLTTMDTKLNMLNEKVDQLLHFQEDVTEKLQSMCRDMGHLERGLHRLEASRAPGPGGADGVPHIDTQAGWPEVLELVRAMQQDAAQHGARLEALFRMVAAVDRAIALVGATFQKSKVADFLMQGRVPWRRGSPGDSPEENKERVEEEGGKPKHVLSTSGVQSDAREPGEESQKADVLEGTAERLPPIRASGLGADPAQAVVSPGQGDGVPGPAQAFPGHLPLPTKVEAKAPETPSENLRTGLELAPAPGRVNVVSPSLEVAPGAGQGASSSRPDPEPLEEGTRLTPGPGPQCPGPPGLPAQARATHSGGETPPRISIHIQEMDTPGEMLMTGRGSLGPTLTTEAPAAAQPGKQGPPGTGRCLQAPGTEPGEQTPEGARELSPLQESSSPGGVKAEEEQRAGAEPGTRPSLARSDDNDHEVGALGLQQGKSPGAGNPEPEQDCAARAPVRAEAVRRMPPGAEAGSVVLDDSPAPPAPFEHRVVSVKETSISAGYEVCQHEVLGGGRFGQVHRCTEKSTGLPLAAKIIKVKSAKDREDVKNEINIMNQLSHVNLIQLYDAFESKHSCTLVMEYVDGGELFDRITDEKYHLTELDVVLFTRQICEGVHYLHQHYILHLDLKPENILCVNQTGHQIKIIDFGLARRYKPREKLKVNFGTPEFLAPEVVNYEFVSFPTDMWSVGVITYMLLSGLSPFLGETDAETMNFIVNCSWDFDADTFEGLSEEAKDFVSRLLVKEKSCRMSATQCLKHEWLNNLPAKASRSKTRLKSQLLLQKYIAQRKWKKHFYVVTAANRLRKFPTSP
# MAP2K1 (human), sequence (Q02750 whole entry, looked up): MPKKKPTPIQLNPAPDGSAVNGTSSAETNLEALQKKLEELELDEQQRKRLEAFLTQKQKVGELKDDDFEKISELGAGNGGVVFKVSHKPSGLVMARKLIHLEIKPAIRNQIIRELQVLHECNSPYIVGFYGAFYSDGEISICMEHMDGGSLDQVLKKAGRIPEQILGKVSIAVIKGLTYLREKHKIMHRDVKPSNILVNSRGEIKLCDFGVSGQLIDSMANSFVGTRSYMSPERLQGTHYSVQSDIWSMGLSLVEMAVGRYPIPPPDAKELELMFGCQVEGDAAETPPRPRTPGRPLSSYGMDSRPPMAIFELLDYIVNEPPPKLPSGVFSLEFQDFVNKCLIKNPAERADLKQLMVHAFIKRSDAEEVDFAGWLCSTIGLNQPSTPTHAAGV
compound,measurement,setting,value
N#Cc1cc(-c2ccnc(Nc3ccc(-n4cnc(-c5cccnc5)n4)cc3)n2)cc(N2CCOCC2)c1,"kinase still bound, per cent of control",[1],57%
same,"kinase still bound, per cent of control",[2],50%
same,"kinase still bound, per cent of control",[3],67%
same,"kinase still bound, per cent of control",[4],79%
same,"kinase still bound, per cent of control",[5],100%
same,"kinase still bound, per cent of control",[6],2.8%
same,"kinase still bound, per cent of control",[7],30%
same,"kinase still bound, per cent of control",[8],100%
same,"kinase still bound, per cent of control",[9],94%
same,"kinase still bound, per cent of control",[10],100%
same,"kinase still bound, per cent of control",[11],18%
same,"kinase still bound, per cent of control",[12],100%
same,"kinase still bound, per cent of control",[13],100%
same,"kinase still bound, per cent of control",[14],76%
same,"kinase still bound, per cent of control",[15],100%
same,"kinase still bound, per cent of control",[16],88%
same,"kinase still bound, per cent of control",[17],88%
same,"kinase still bound, per cent of control",[18],53%
same,"kinase still bound, per cent of control",[19],39%
same,"kinase still bound, per cent of control",[20],16%
same,"kinase still bound, per cent of control",[21],54%
same,"kinase still bound, per cent of control",[22],56%
same,"kinase still bound, per cent of control",[23],100%
same,"kinase still bound, per cent of control",[24],0%
same,"kinase still bound, per cent of control",[25],62%
same,"kinase still bound, per cent of control",[26],65%
same,"kinase still bound, per cent of control",[27],43%
same,"kinase still bound, per cent of control",[28],82%
same,"kinase still bound, per cent of control",[29],31%
same,"kinase still bound, per cent of control",[30],91%
same,"kinase still bound, per cent of control",[31],6.3%
same,"kinase still bound, per cent of control",[32],100%
same,"kinase still bound, per cent of control",[33],72%
same,"kinase still bound, per cent of control",[34],54%
same,"kinase still bound, per cent of control",[35],46%
same,"kinase still bound, per cent of control",[36],48%
same,"kinase still bound, per cent of control",[37],14%
same,"kinase still bound, per cent of control",[38],26%
same,"kinase still bound, per cent of control",[39],59%
same,"kinase still bound, per cent of control",[40],100%
